In patent publication US11952349B2, “Anti-cancer nuclear hormone receptor-targeting compounds” (Nuvation Bio Inc., priority 2019, dated 2024):
pIC50: −log10 of the molar value.

Experiments:
[1] = target: T1, GR, cytosol from IM-9 cells (Homo sapiens, UniProt P04150); experiment: GR binding assay, 3H-Dexamethasone; conditions: Table 8; 3H-Dexamethasone 1.5 nM
T1 construct: endogenous in cells; host or cells: IM-9 cells (cytosol)
T1 sequence (P04150 1-777): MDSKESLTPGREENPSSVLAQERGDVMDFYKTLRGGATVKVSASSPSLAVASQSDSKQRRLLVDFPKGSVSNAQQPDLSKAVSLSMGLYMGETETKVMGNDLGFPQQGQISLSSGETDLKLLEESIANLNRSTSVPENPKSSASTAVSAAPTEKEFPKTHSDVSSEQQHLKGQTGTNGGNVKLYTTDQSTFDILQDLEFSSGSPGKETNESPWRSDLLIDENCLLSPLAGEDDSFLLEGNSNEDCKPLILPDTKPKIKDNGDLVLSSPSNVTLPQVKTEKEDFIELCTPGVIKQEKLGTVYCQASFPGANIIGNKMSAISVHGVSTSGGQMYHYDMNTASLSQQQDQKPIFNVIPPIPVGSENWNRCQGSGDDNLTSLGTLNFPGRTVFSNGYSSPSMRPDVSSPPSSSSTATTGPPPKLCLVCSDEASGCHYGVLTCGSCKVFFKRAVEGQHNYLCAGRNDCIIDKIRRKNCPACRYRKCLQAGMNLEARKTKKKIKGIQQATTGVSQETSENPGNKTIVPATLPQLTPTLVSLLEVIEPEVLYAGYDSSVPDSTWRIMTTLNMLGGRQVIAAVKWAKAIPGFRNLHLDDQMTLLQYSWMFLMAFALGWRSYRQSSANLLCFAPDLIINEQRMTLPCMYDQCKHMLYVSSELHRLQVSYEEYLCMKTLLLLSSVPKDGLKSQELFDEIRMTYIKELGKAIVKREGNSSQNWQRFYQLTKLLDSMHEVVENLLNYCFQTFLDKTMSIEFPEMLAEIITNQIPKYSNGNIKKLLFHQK
Protocol: GR binding assay: To assess GR binding, test compound (top dose 1 μM, 4 fold serial dilution, 8 point dose response) and control (dexamethasone) were transferred to the assay plate. Cytosol from IM-9 cells was added to the plate, followed by addition of radiolabeled ^3H-Dexamethasone at a final concentration of 1.5 nM. The plate was sealed, and the reaction was incubated at 300 rpm at 4° C. for 24 hrs. Radioligand absorption buffer (10 mM Tris-HCl, pH 7.4; 1.5 mM EDTA; 1 mM DTT; 0.25% charcoal; 0.0025% dextran) was then added to the plate, mixed, and incubated at 4° C. for 15 minutes. The plate was then centrifuged at […] for 30 minutes at 4° C. The supernatant was transferred to the scint-tube and Tri-carb was used for scintillation counting. The data was analyzed using GraphPadPrism v5.0 and binding IC50 was determined as the concentration where 50% inhibition of radioligand binding was observed.

T47D cells = experiment: Cell viability assay (CellTiterGlo, 6 days) T47D; assay type: cell-based; conditions: Homo sapiens, 144 h, Table 8
Protocol: (§1) Cell viability assay: LNCap, 22Rv1, and T47D cells were seeded at a density of 1500-2000 cells/well in 96 well plates, and a ‘T0’ (timepoint 0) was included along with the assay plate. The plates were then incubated at 37° C., 5% CO2 in a cell culture incubator overnight. On the next day, the ‘T0’ plate was assayed using CellTiterGlo (Promega, Inc) according to the manufacturer's instructions. The appropriate compounds were diluted in DMSO and added to the assay plate (final DMSO concentration of 0.2%) on the next day. The assay plates were incubated for 6 days at 37° C., 5% CO2. After the incubation period, the plates were assayed using CellTiterGlo (Promega, Inc) according to the manufacturer's instructions and luminescence was read on the EnVision plate reader. Inhibition the tested compounds was determined by the following formula: Inhibition rate (%)=(1−(RLU compound−RLU day0)/(RLU control−RLU day0))*100%. GraphPadPrism was used to analyze the data and determine absolute IC50 values.

22Rv1 cells = experiment: Cell viability assay (CellTiterGlo, 6 days) 22Rv1; assay type: cell-based; conditions: Homo sapiens, 22Rv1, 144 h; Table 7; cell viability, 6 days; read-out: 22RV1
Protocol: as §1

Compound	pIC50 [1]	pIC50 (T47D cells)	pIC50 (22Rv1 cells)
CC#C[C@]1(O)CC[C@H]2[C@@H]3CCC4=CC(=O)CCC4=C3[C@@H](c3ccc(N(C)CCCCCC(=O)NCCOCCOCC(=O)N4CCN(C(=O)c5cc(Cc6n[nH]c(=O)c7ccccc67)ccc5F)CC4)cc3)C[C@@]21C [Compound 1429, N-(2-(2-(2-(4-(2-fluoro-5-((4-oxo-3,4-dihydrophthalazin-1-yl)methyl)benzoyl)piperazin-1-yl)-2-oxoethoxy)ethoxy)ethyl)-6-((4-((8S,11R,13S,14S,17S)-17-hydroxy-13-methyl-3-oxo-17-(prop-1-ynyl)-2,3,6,7,8,11,12,13,14,15,16,17-dodecahydro-1H-cyclopenta[a]phenanthren-11-yl)phenyl)(methyl)amino)hexanamide]	> 8.00	< 5.00	
CC(=O)O[C@]1(C(C)=O)CC[C@H]2[C@@H]3CCC4=CC(=O)CCC4=C3[C@@H](c3ccc(N(C)CCCCCC(=O)NCCOCCOCC(=O)N4CCN(C(=O)c5cc(Cc6n[nH]c(=O)c7ccccc67)ccc5F)CC4)cc3)C[C@@]21C [Compound 1384, (8S,11R,13S,14S,17R)-17-acetyl-11-(4-((6-(2-(2-(2-(4-(2-fluoro-5-((4-oxo-3,4-dihydrophthalazin-1-yl)methyl)benzoyl)piperazin-1-yl)-2-oxoethoxy)ethoxy)ethylamino)-6-oxohexyl)(methyl)amino)phenyl)-13-methyl-3-oxo-2,3,6,7,8,11,12,13,14,15,16,17-dodecahydro-1H-cyclopenta[a]phenanthren-17-yl acetate]	> 8.00	5.00 to 6.00	
C[C@]12Cc3cn[nH]c3C[C@@H]1CC[C@@H]1[C@@H]2CC[C@]2(C)[C@@H](OCCCCCC(=O)N3CCN(C(=O)c4cc(Cc5n[nH]c(=O)c6ccccc56)ccc4F)CC3)CC[C@@H]12 [Compound 1394, 4-(3-(4-(6-(((1S,3aS,3bR,5aS,10aS,10bS,12aS)-10a,12a-dimethyl-1,2,3,3a,3b,4,5,5a,6,7,10,10a,10b,11,12,12a-hexadecahydrocyclopenta[5,6]naphtho[1,2-f]indazol-1-yl)oxy)hexanoyl)piperazine-1-carbonyl)-4-fluorobenzyl)phthalazin-1(2H)-one]			6.00 to 7.00
CC#C[C@]1(O)CC[C@H]2[C@@H]3CCC4=CC(=O)CCC4=C3[C@@H](c3ccc(N(C)CCCCCC(=O)N4CCN(C(=O)c5cc(Cc6n[nH]c(=O)c7ccccc67)ccc5F)CC4)cc3)C[C@@]21C [Compound 135, 4-(4-fluoro-3-(4-(6-((4-((8S,11R,13S,14S,17S)-17-hydroxy-13-methyl-3-oxo-17-(prop-1-ynyl)-2,3,6,7,8,11,12,13,14,15,16,17-dodecahydro-1H-cyclopenta[a]phenanthren-11-yl)phenyl)(methyl)amino)hexanoyl)piperazine-1-carbonyl)benzyl)phthalazin-1(2H)-one]	> 8.00	6.00 to 7.00	
Cn1ncnc1C1c2n[nH]c(=O)c3cc(F)cc(c23)N[C@@H]1c1ccc(NC(=O)CCCCCO[C@@H]2CC[C@H]3[C@@H]4CC[C@H]5CCCC[C@]5(C)[C@H]4CC[C@]23C)cc1 (stereo partly drawn) [Compound 1128, 6-((5R,8R,9S,10S,13S,14S,17R)-10,13-dimethylhexadecahydro-1H-cyclopenta[a]phenanthren-17-yloxy)-N-(4-((8S)-5-fluoro-9-(1-methyl-1H-1,2,4-triazol-5-yl)-3-oxo-3,7,8,9-tetrahydro-2H-pyrido[4,3,2-de]phthalazin-8-yl)phenyl)hexanamide]			5.00 to 6.00
C[C@@]12CCC(=O)C[C@H]1CC[C@H]1[C@H]2CC[C@]2(C)[C@@H]1CC[C@H]2OCCCCCCNC(=O)c1cc(Cc2n[nH]c(=O)c3ccccc23)ccc1F (stereo in doubt) [Compound 1426, N-(6-((5R,8S,9R,10R,13R,14R,17R)-10,13-dimethyl-3-oxohexadecahydro-1H-cyclopenta[a]phenanthren-17-yloxy)hexyl)-2-fluoro-5-((4-oxo-3,4-dihydrophthalazin-1-yl)methyl)benzamide]			5.00 to 6.00
C[C@]12C[C@H](CCCCCC(=O)N3CCN(C(=O)c4cc(Cc5n[nH]c(=O)c6ccccc56)ccc4F)CC3)C3=C4CCC(=O)C=C4CC[C@H]3[C@@H]1CCC2O (stereo partly drawn) [Compound 138, 4-(4-fluoro-3-(4-(6-((8S,11S,13S,14S)-17-hydroxy-13-methyl-3-oxo-2,3,6,7,8,11,12,13,14,15,16,17-dodecahydro-1H-cyclopenta[a]phenanthren-11-yl)hexanoyl)piperazine-1-carbonyl)benzyl)phthalazin-1(2H)-one]			6.00 to 7.00
C[C@]12CC[C@H]3[C@@H](CCC4=CC(=O)CC[C@@]43C)[C@@H]1CC[C@@H]2C(=O)COCCCCCC(=O)N1CCN(C(=O)c2cc(Cc3n[nH]c(=O)c4ccccc34)ccc2F)CC1 [Compound 1386, 4-(3-(4-(6-(2-((8S,9S,10R,13S,14S,17S)-10,13-dimethyl-3-oxo-2,3,6,7,8,9,10,11,12,13,14,15,16,17-tetradecahydro-1H-cyclopenta[a]phenanthren-17-yl)-2-oxoethoxy)hexanoyl)piperazine-1-carbonyl)-4-fluorobenzyl)phthalazin-1(2H)-one]	6.00 to 7.00	6.00 to 7.00	
CC(=O)O[C@]1(C(C)=O)CC[C@H]2[C@@H]3CCC4=CC(=O)CCC4=C3[C@@H](c3ccc(N(C)CCCCCC(=O)N4CCN(C(=O)c5cc(Cc6n[nH]c(=O)c7ccccc67)ccc5F)CC4)cc3)C[C@@]21C [Compound 1378, (8S,11R,13S,14S,17R)-17-acetyl-11-(4-((6-(4-(2-fluoro-5-((4-oxo-3,4-dihydrophthalazin-1-yl)methyl)benzoyl)piperazin-1-yl)-6-oxohexyl)(methyl)amino)phenyl)-13-methyl-3-oxo-2,3,6,7,8,11,12,13,14,15,16,17-dodecahydro-1H-cyclopenta[a]phenanthren-17-yl acetate]	> 8.00	6.00 to 7.00	
